pIC50: −log10 of the molar value. Values joined by “and” are separate entries in the source; they are usually repeats but may differ in a detail not shown here. Identical values can stand only once. Like-named read-outs stand apart in the source and are kept apart here.
Tests used:
Assay type in all cases: cell-based
[1] = Cell cytotoxicity CC50, HepG2 cells (CellTox Green); conditions: human, 48-hour incubation, multiple values = multiple test occasions, read-out: Tox CC50
Method: (§1) HepG2 cells, in media supplemented with 10% fetal bovine serum (FBS), were seeded at […] into white walled 96 well plates and incubated at 37° C., 5% CO2. Twenty-four hours post seeding media was removed and replaced with media supplemented with 2% FBS and containing final compound concentrations equal to those tested in parallel virus plaque assays. Following a further 48-hour incubation cell cytotoxicity was determined using the CellTox™ Green (Promega) kit and […] read using an appropriate protocol on a GloMax® Explorer System (Promega). During analysis DMSO containing wells were used as a negative control and lysed cells as a positive control.

RSV A2 VR-1540 = assay: Second plaque reduction assay (HEp-2 cells); conditions: multiple values = multiple test occasions
Text: (§2) Cells were obtained from ATCC and the virus preparation was subjected to one round of centrifugation through a 40% (V/V) glycerol to remove any interferon produced from infected cells. Growth medium was Dulbecco's modified Eagle's medium (DMEM) with 10% (v/v) foetal calf serum (FCS), Viral maintenance medium was DMEM+2% (v/v) FCS.
The RSV plaque reduction assay is an infectivity assay which allows quantification of the number of infectious units in a distinct foci of RSV infection. This is indicated by zones of viral antigen detected by specific antibody staining within a monolayer of otherwise healthy tissue culture cells. As each plaque originates from a single infectious virus particle an accurate calculation of the anti-viral effect can be obtained by counting plaques in the presence and absence of an anti-viral compound. HEp-2 cells (ATCC, CCL23) were passaged in flasks and seeded in 96-well plates in DMEM containing antibiotics and supplemented with 10% FBS. During inoculation and subsequent incubation, cells were cultured in DMEM containing 3% FBS. 100 plaque forming unit (PFU)/well of RSV (RSV A2 VR-1540) was mixed with ten serial dilutions of compound. Subsequently, 100 μL of the virus/compound mixtures was added to confluent HEp-2 cell monolayers. The cells and virus/compound mixtures were incubated at 35° C. in a humidified 5% CO2 incubator for 1 day.
Cells were washed twice with PBS before adding 50% v/v EtOH/MeOH, and then stored at −20° C. On the day of the staining, fixative was first removed from the plates. Plates were washed 3× with PBS. A pre-titrated amount of the primary antibody was added in 60 μL PBS/2% milk powder, and plates incubated for 1 h at rt. The plates were washed 3× with PBS/0.05% Tween20 before addition of goat anti-mouse horse radish peroxidase in 60 μL PBS/2% milk powder, and incubated for 1 h at rt. Following three wash steps with PBS/0.05% Tween20, 60 μL ready-to-use TrueBlue was added and plates were incubated at rt for 10-15 min before adding MilliQ water. Plates were washed once with water, incubated for 30-60 min and after removal of water, air-dried in the dark.
Plates were scanned and analyzed using the Immunospot S6 UV analyzer, which is equipped with BioSpot analysis software for counting immunostained plaques (virospots). Plaque counts were used to calculate % infection relative to the mean of the spot count (SC) in the virus control wells for RSV. IC50/IC90 values were calculated as 50% or 90% reduction in signal, respectively, by interpolation of inhibition curves fitted with a 4-parameter nonlinear regression with a variable slope in GraphPad 5.0 (Prism).

HepG2 cells = assay: Cell cytotoxicity CC50, HepG2 cells (CellTox Green); conditions: 48-hour incubation, multiple values = multiple test occasions, read-out: Tox CC50
Method: as §1

[2] = Cell cytotoxicity CC50 assay (A549 and HeLa cells); conditions: human, 6-8 days, DMEM+2% FCS
Text: as §2, with “maintainance” for “maintenance”
Cell Cytotoxicity—CC50 (Concentration at which 50% Cell Toxicity is Observed):
(§3) A549 cells and HeLa cells were used to seed a set of 96 well plates grown until 50% confluent, a 2 fold serial dilution of the compound was performed on each cell line with DMSO (only) as control starting with 100 μM of the compound. Medium used was DMEM+2% FCS (normal medium for viral growth).
(§4) Cells were allowed to grow for 6-8 days to mimic a TCID50 assay after which cell viability was determined by adding Almar blur (similar to XT) and reading at 600 nm (excitation 540 nm).

RSV = assay: Cytopathic effect (CPE) assay; conditions: human respiratory syncytial virus, read-out: CPE IC50
Text: as §2, with “maintainance” for “maintenance”
Cytopathic Effect (CPE) Assay—IC50:
as §3, §4

[3] = human respiratory syncytial virus, HEp-2, 24 h, read-out: Plaque IC50, HEp-2 cells, RSV A2, 1 day
[4] = read-out: Plaque IC50, HEp-2 cells, RSV A2, 1 day

Row | SMILES | CC50 at 48 h [1] [µM] | pIC50 (RSV A2 VR-1540; [3]) | pIC50 (RSV A2 VR-1540; [4]) | CC50 (HepG2 cells) [µM] | further results
1 | O=C(CNc1nc(F)c(F)c(N2CCOCC2)c1F)N[C@H]1N=C(c2ccccc2)c2ccccc2NC1=O [Compound 14, N-[(3S)-2-oxo-5-phenyl-2,3-dihydro-1H-1,4-benzodiazepin-3-yl]-2-{[3,5,6-trifluoro-4-(morpholin-4-yl)pyridin-2-yl]amino}acetamide] | > 25 |  |  |  | 
2 | O=C(CNc1cc(Cl)ncn1)N[C@H]1N=C(c2ccccc2)c2ccccc2NC1=O [Compound 18, 2-[(6-Chloropyrimidin-4-yl)amino]-N-[(3S)-2-oxo-5-phenyl-2,3-dihydro-1H-1,4-benzodiazepin-3-yl]acetamide] | > 25 | 5.31 | 5.03 |  | 
3 | CC(C)[C@@H](Nc1c(F)c(F)nc(F)c1F)C(=O)N[C@H]1N=C(c2ccccc2)c2ccccc2NC1=O [Compound 8, (2R)-3-Methyl-N-[(3S)-2-oxo-5-phenyl-2,3-dihydro-1H-1,4-benzodiazepin-3-yl]-2-[(2,3,5,6-tetrafluoropyridin-4-yl)amino]butanamide] | > 25 |  |  | 16.3 | 
4 | O=C(N[C@H]1N=C(c2ccccc2)c2ccccc2NC1=O)[C@H](Cc1ccccc1)Nc1c(F)c(F)nc(F)c1F [Compound 11] |  |  |  | > 25 | 
5 | O=C(CNc1ccccc1)N[C@H]1N=C(c2ccccc2)c2ccccc2NC1=O [Compound 1, N-{(3S)-2-oxo-5-phenyl-2,3-dihydro-1H-1,4-benzodiazepin-3-yl](phenylamino)acetamide] |  |  |  |  | CC50 [2]: 25 µM; pIC50 (RSV; A549 cells and HeLa cells, 6-8 days, DMEM+2% FCS): 5.60
6 | C[C@H](Nc1c(F)c(F)nc(F)c1F)C(=O)N[C@H]1N=C(c2ccccc2)c2ccccc2NC1=O [Compound 9, (2S)-N-[(3S)-2-oxo-5-phenyl-1,3-dihydro-1,4-benzodiazepin-3-yl]-2-[(2,3,5,6-tetrafluoropyridin-4-yl)amino]propanamide] | > 25 | 5.28 | 5.42 |  | 
7 | CC(C)[C@H](Nc1c(F)c(F)nc(F)c1F)C(=O)N[C@H]1N=C(c2ccccc2)c2ccccc2NC1=O [Compound 7, (2S)-3-Methyl-N-[(3S)-2-oxo-5-phenyl-2,3-dihydro-1H-1,4-benzodiazepin-3-yl]-2-[(2,3,5,6-tetrafluoropyridin-4-yl)amino]butanamide] | 16 | 5.29 | 5.06 and 5.00 | > 25 | 
8 | CCOc1nc(F)c(F)c(NCC(=O)N[C@H]2N=C(c3ccccc3)c3ccccc3NC2=O)c1F [Compound 4, 2-[(2-ethoxy-3,5,6-trifluoropyridin-4-yl)amino]-N-{(3S)-2-oxo-5-phenyl-2,3-dihydro-1H-1,4-benzodiazepin-3-yl]acetamide] |  |  |  |  | CC50 [2]: > 100 µM; pIC50 (RSV): 5.60
9 | O=C1Nc2ccccc2C(c2ccccc2)=N[C@@H]1NC(=O)[C@H]1CCCN1c1c(F)c(F)nc(F)c1F [Compound 6, N(2R)-N-[(3S)-2-oxo-5-phenyl-2,3-dihydro-1H-1,4-benzomazepin-3-yl]-1-(2,3,5,6-tetrafluoropyridin-4-yl)pyrrolidine-2-carboxamide] |  |  |  | > 25 | pIC50 (RSV A2 VR-1540; HEp-2 cells, RSV A2, 1 day, read-out: Plaque IC50): 5.36 and 5.08
10 | C[C@@H](Nc1c(F)c(F)nc(F)c1F)C(=O)N[C@H]1N=C(c2ccccc2)c2ccccc2NC1=O [Compound 10, (2R)-N-[(3S)-2-oxo-5-phenyl-1,3-dihydro-1,4-benzodiazepin-3-yl]-2-[(2,3,5,6-tetrafluoropyridin-4-yl)amino]propanamide] | > 25 | 5.47 | 5.75 |  | 

— US11247973B2 (The University of Durham, priority 2016, dated 2022)
